Biological target: T1, Human Polθ polymerase domain (aa1820-2590) (Homo sapiens, UniProt O75417)
T1 construct: Human Polθ polymerase domain (aa1820-2590) was expressed in E. coli; made in house; host or cells: E. coli
T1 sequence (O75417 1820-2590): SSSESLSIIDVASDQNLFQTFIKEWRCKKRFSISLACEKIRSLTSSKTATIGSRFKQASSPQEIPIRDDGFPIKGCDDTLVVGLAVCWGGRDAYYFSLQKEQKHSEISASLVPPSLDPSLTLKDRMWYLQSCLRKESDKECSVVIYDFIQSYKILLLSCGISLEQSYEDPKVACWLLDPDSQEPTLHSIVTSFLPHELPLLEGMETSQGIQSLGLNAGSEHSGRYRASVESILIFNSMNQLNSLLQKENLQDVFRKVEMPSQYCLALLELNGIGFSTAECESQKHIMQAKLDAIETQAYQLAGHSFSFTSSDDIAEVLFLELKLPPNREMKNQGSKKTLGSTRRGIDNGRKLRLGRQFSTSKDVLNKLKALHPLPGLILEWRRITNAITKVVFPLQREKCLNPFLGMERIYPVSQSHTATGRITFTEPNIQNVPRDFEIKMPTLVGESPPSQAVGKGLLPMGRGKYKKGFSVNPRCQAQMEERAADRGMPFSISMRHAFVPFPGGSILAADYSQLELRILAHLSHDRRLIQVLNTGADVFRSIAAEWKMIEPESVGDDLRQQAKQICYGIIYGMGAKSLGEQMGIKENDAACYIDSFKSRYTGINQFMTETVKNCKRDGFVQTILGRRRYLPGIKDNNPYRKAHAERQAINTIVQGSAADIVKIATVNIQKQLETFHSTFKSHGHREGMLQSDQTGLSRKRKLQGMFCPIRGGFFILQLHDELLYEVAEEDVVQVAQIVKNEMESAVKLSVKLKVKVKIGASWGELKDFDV
Assay: Polθ Polymerase Domain Kinact/KI Assay (PicoGreen)
Type: biochemical
Conditions: 0.8 nM Polθ, 100 nM DNA substrate, kobs vs [I] fit for 2-step covalent inhibitor
In short: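 Covalent Kinact/KI by PicoGreen DNA synthesis readout: E. coli-expressed Polθ polymerase domain (0.8 nM), 100 nM annealed DNA substrate, […], Tris pH 7.5 buffer with DTT, 1% DMSO; EDTA-stopped over 0–60 min time course. kobs from progress curves, then kobs vs [I] fit to two-step covalent model.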

Kinact/Kl [M⁻¹ s⁻¹] | Compound
1.55e+06 | C=CC(=O)N1Cc2ccc(CN3C[C@H]4CC(=O)N(c5cc(C(F)(F)F)cc(C)n5)[C@@H]4C(=O)N(C)c4cccc(C)c43)nc2C1 [Example 240, (3aR,11aS)-5-((6-acryloyl-6,7-dihydro-5H-pyrrolo[3,4-b]pyridin-2-yl)methyl)-6,10-dimethyl-1-(6-methyl-4-(trifluoromethyl)pyridin-2-yl)-1,3a,4,5,10,11a-hexahydro-2H-benzo[b]pyrrolo[2,3-f][1,4]diazocine-2,11(3H)-dione]
1.28e+06 | C=CC(=O)N1Cc2nc(CN3C[C@H]4CC(=O)N(c5cc(C(F)(F)F)cc(C)n5)[C@@H]4C(=O)N(C)c4cccc(C)c43)n(C)c2C1 [Example 241, (3aR,11aS)-5-((5-acryloyl-1-methyl-1,4,5,6-tetrahydropyrrolo[3,4-d]imidazol-2-yl)methyl)-6,10-dimethyl-1-(6-methyl-4-(trifluoromethyl)pyridin-2-yl)-1,3a,4,5,10,11a-hexahydro-2H-benzo[b]pyrrolo[2,3-f][1,4]diazocine-2,11(3H)-dione]
660000 | C=CC(=O)N1Cc2nc(CN3C[C@H]4CC(=O)N(c5cc(C(F)(F)F)cc(C)n5)[C@@H]4C(=O)N(C)c4cccc(Cl)c43)n(C)c2C1 [Example 242, (3aR,11aS)-5-((5-acryloyl-1-methyl-1,4,5,6-tetrahydropyrrolo[3,4-d]imidazol-2-yl)methyl)-6-chloro-10-methyl-1-(6-methyl-4-(trifluoromethyl)pyridin-2-yl)-1,3a,4,5,10,11a-hexahydro-2H-benzo[b]pyrrolo[2,3-f][1,4]diazocine-2,11(3H)-dione]
3.83e+06 | C=CC(=O)N1Cc2nc(CN3C[C@H]4CC(=O)N(c5cc(C(F)(F)F)cc(C)n5)[C@@H]4C(=O)N(C)c4cccc(Cl)c43)cn2CC1CO (stereo partly drawn) [Example 244, (3aR,11aS)-5-((7-acryloyl-6-(hydroxymethyl)-5,6,7,8-tetrahydroimidazo[1,2-a]pyrazin-2-yl)methyl)-6-chloro-10-methyl-1-(6-methyl-4-(trifluoromethyl)pyridin-2-yl)-1,3a,4,5,10,11a-hexahydro-2H-benzo[b]pyrrolo[2,3-f][1,4]diazocine-2,11(3H)-dione]
1.9e+06 | Cc1cc(C(F)(F)F)cc(N2C(=O)C[C@@H]3CN(Cc4ccc(NC(=O)/C=C/CN(C)C)c(F)c4)c4c(Cl)cccc4N(C)C(=O)[C@H]32)n1 [Example 245, (E)-N-(4-(((3aR,11aS)-6-chloro-10-methyl-1-(6-methyl-4-(trifluoromethyl)pyridin-2-yl)-2,11-dioxo-1,2,3,3a,4,10,11,11a-octahydro-5H-benzo[b]pyrrolo[2,3-f][1,4]diazocin-5-yl)methyl)-2-fluorophenyl)-4-(dimethylamino)but-2-enamide]
420000 | Cc1cc(C(F)(F)F)cc(N2C(=O)C[C@@H]3CN(Cc4ccc(NC(=O)/C=C/CN(C)C)cc4F)c4c(Cl)cccc4N(C)C(=O)[C@H]32)n1 [Example 246, (E)-N-(4-(((3aR,11aS)-6-chloro-10-methyl-1-(6-methyl-4-(trifluoromethyl)pyridin-2-yl)-2,11-dioxo-1,2,3,3a,4,10,11,11a-octahydro-5H-benzo[b]pyrrolo[2,3-f][1,4]diazocin-5-yl)methyl)-3-fluorophenyl)-4-(dimethylamino)but-2-enamide]
980000 | Cc1cc(C(F)(F)F)cc(N2C(=O)C[C@@H]3CN(Cc4cccc(NC(=O)/C=C/CN(C)C)c4)c4c(Cl)cccc4N(C)C(=O)[C@H]32)n1 [Example 247, (E)-N-(3-(((3aR,11aS)-6-chloro-10-methyl-1-(6-methyl-4-(trifluoromethyl)pyridin-2-yl)-2,11-dioxo-1,2,3,3a,4,10,11,11a-octahydro-5H-benzo[b]pyrrolo[2,3-f][1,4]diazocin-5-yl)methyl)phenyl)-4-(dimethylamino)but-2-enamide]
810000 | C=CC(=O)Nc1ccc(CN2C[C@H]3CC(=O)N(c4cc(C(F)(F)F)cc(C)n4)[C@@H]3C(=O)N(C)c3cccc(Cl)c32)cc1C#N [Example 248, N-(4-(((3aR,11aS)-6-chloro-10-methyl-1-(6-methyl-4-(trifluoromethyl)pyridin-2-yl)-2,11-dioxo-1,2,3,3a,4,10,11,11a-octahydro-5H-benzo[b]pyrrolo[2,3-f][1,4]diazocin-5-yl)methyl)-2-cyanophenyl)acrylamide]
110000 | CC(=O)N1CCN(C/C=C/C(=O)Nc2ccc(CN3C[C@H]4CC(=O)N(c5cc(C(F)(F)F)cc(C)n5)[C@@H]4C(=O)N(C)c4cccc(C)c43)cc2)CC1 [Example 249, (E)-4-(4-acetylpiperazin-1-yl)-N-(4-(((3aR,11aS)-6,10-dimethyl-1-(6-methyl-4-(trifluoromethyl)pyridin-2-yl)-2,11-dioxo-1,2,3,3a,4,10,11,11a-octahydro-5H-benzo[b]pyrrolo[2,3-f][1,4]diazocin-5-yl)methyl)phenyl)but-2-enamide]
530000 | C=CC(=O)N1CCOc2ccc(CN3C[C@H]4CC(=O)N(c5cc(C(F)(F)F)cc(C)n5)[C@@H]4C(=O)N(C)c4cccc(Cl)c43)cc21 [Example 250, (3aR,11aS)-5-((4-acryloyl-3,4-dihydro-2H-benzo[b][1,4]oxazin-6-yl)methyl)-6-chloro-10-methyl-1-(6-methyl-4-(trifluoromethyl)pyridin-2-yl)-1,3a,4,5,10,11a-hexahydro-2H-benzo[b]pyrrolo[2,3-f][1,4]diazocine-2,11(3H)-dione]
370000 | Cc1cc(C(F)(F)F)cc(N2C(=O)C[C@@H]3CN(Cc4ccc5c(c4)N(C(=O)/C=C/CN(C)C)CCO5)c4c(Cl)cccc4N(C)C(=O)[C@H]32)n1 [Example 251, (3aR,11aS)-6-chloro-5-((4-((E)-4-(dimethylamino)but-2-enoyl)-3,4-dihydro-2H-benzo[b][1,4]oxazin-6-yl)methyl)-10-methyl-1-(6-methyl-4-(trifluoromethyl)pyridin-2-yl)-1,3a,4,5,10,11a-hexahydro-2H-benzo[b]pyrrolo[2,3-f][1,4]diazocine-2,11(3H)-dione]
1.19e+06 | Cc1cc(C(F)(F)F)cc(N2C(=O)C[C@@H]3CN(CCCCNC(=O)/C=C/CN(C)C)c4c(Cl)cccc4N(C)C(=O)[C@H]32)n1 [Example 252, (E)-N-(4-((3aR,11aS)-6-chloro-10-methyl-1-(6-methyl-4-(trifluoromethyl)pyridin-2-yl)-2,11-dioxo-1,2,3,3a,4,10,11,11a-octahydro-5H-benzo[b]pyrrolo[2,3-f][1,4]diazocin-5-yl)butyl)-4-(dimethylamino)but-2-enamide]
1.42e+06 | Cc1cc(C(F)(F)F)cc(N2C(=O)C[C@@H]3CN(CC(F)CCCNC(=O)/C=C/CN(C)C)c4c(Cl)cccc4N(C)C(=O)[C@H]32)n1 (stereo partly drawn) [Example 253, (E)-N-(5-((3aR,11aS)-6-chloro-10-methyl-1-(6-methyl-4-(trifluoromethyl)pyridin-2-yl)-2,11-dioxo-1,2,3,3a,4,10,11,11a-octahydro-5H-benzo[b]pyrrolo[2,3-f][1,4]diazocin-5-yl)-4-fluoropentyl)-4-(dimethylamino)but-2-enamide]
2.13e+06 | Cc1cc(C(F)(F)F)cc(N2C(=O)C[C@@H]3CN(CCCCC4CN(C(=O)/C(Cl)=C/CN(C)C)C4)c4c(C)cccc4N(C)C(=O)[C@H]32)n1 [Example 254, (3aR,11aS)-5-(4-(1-((Z)-2-chloro-4-(dimethylamino)but-2-enoyl)azetidin-3-yl)butyl)-6,10-dimethyl-1-(6-methyl-4-(trifluoromethyl)pyridin-2-yl)-1,3a,4,5,10,11a-hexahydro-2H-benzo[b]pyrrolo[2,3-f][1,4]diazocine-2,11(3H)-dione]
980000 | Cc1cc(C(F)(F)F)cc(N2C(=O)C[C@@H]3CN(Cc4ccc5c(c4)CN(C(=O)/C(Cl)=C/CN(C)C)C5)c4c(C)cccc4N(C)C(=O)[C@H]32)n1 [Example 255, (3aR,11aS)-5-((2-((Z)-2-chloro-4-(dimethylamino)but-2-enoyl)isoindolin-5-yl)methyl)-6,10-dimethyl-1-(6-methyl-4-(trifluoromethyl)pyridin-2-yl)-1,3a,4,5,10,11a-hexahydro-2H-benzo[b]pyrrolo[2,3-f][1,4]diazocine-2,11(3H)-dione]
1.11e+06 | C=CC(=O)N1CCN(CCN2C[C@H]3CC(=O)N(c4cc(C(F)(F)F)cc(C)n4)[C@@H]3C(=O)N(C)c3cccc(C)c32)CC1 [Example 256, (3aR,11aS)-5-(2-(4-acryloylpiperazin-1-yl)ethyl)-6,10-dimethyl-1-(6-methyl-4-(trifluoromethyl)pyridin-2-yl)-1,3a,4,5,10,11a-hexahydro-2H-benzo[b]pyrrolo[2,3-f][1,4]diazocine-2,11(3H)-dione]

From patent US20250230165A1, “HETEROCYCLIC COMPOUNDS FOR USE IN THE TREATMENT OF CANCER” (ARTIOS PHARMA LIMITED, priority 2021, published 2025)
